Source: patent US20160030365A1, “PHARMACEUTICAL OR COSMETIC COMPOSITION SUITABLE TO PRESERVE EPITHELIAL STEM CELLS” (GIULIANI S.P.A., priority 2013, published 2016)

Test system: keratin K15 (cytokeratin 15, CK15) of human epithelial hair follicle stem cells
Experiment: Quantitative immunohistochemistry for keratin K15 in organ-cultured human hair follicles
Format: cell-based
Details: for relative intensity of immunohistochemistry of keratin K15: microdissected human anagen VI hair follicles in organ culture, 6 days, relative intensity of the vehicle=1
Source text: The scope of the study is to determine the effects of N^1-methyl spermidine, a compound of formula (I) of this invention, on the biomarker keratin K15 (cytokeratin 15, CK15) of human epithelial hair follicle stem cells (heHFSCs). As reference on this point in the literature we can quote Kloepper JE et al. (2008), Immunophenotyping of the human bulge region: the quest to define useful in situ markers for human epithelial hair follicle stem cells and their niche. Exp Dermatol 17: 592-609.
Scalp samples were collected from two women who were submitted to surgical lifting, after obtaining their informed consent. Experiments were performed in compliance with the Helsinki principles, with the Ethics Committee's approval. Details of samples are described in Table 1 below.
J Dermatol Sci 7: SuppIS 55-72.
N^1-methyl-spermidine of the invention or spermidine or the vehicle were changed every 48 hours with the culture medium. A summary of the study procedure is presented in Table 2 below, in which N^1-methyl spermidine, the compound of formula (II) of this invention, used in the test at concentrations of 0.5 and 1.5 μM is the active substance', while spermidine was used as a control at the concentration of 0.5 μM.
The tyramide signal amplification method was used to assess the expression of keratin K15, as described in the abovementioned paper by Kloepper et al. (2008). The cryosections fixed in acetone were washed thrice for 5 minutes using the buffer (0.1 mol/L Tris-HCl, pH 7.5, containing 0.15 mol/L NaCl and 0.05% Tween 20) TNT (Tris-HCl NaCl Tween). Later, peroxidase was inhibited by washing with 3% H2O2 in phosphate buffered saline (PBS) for 15 min. Preincubation was performed with avidin and biotin for 15 minutes, and with 5% normal goat serum in TNT for 30 minutes with intermediate lavage. The Mouse Anti-Human K15 antibody (clone LHK15, Chemicon, Billerica, USA) was diluted in TNT and incubated for one night at 4° C. This incubation period was followed by a second incubation period with a secondary biotinylated Goat Anti-Mouse antibody (1:200 in TNT) for 45 minutes in RT. […] Immunohistochemistry intensity was quantified with the ImageJ software (National Institutes of Health). Stain intensity of the defined reference regions of the follicle was measured and compared between the control groups and groups treated with N^1-methyl spermidine at the concentrations of 0.5 and 1.5 μM, or with spermidine 0.5 μM. • Statistical Analysis
The statistical analysis was performed using a two tailed Student t-test for samples that were not coupled. To group the two experiments, each treatment group was compared with the control group (mean value), and the relative variation in expression was calculated.

Row | Structure (SMILES) | inductive effect towards keratin K15 compared with an equal concentration of spermidine (0.5 μM vs spermidine 0.5 μM) | relative intensity of immunohistochemistry of keratin K15 (0.5 μM) | relative intensity of immunohistochemistry of keratin K15 (1.5 μM)
1 | CN(CCCN)CCCCN [N^1-methyl spermidine, N-(3-aminopropyl)-N^1-methyl-1,4-butandiamine] | higher than that of an equal concentration of 0.5 μM of spermidine | 1.739 | 1.806
2 | NCCCCNCCCN [spermidine, reference compound] |  | 1.12 | 
